One assay has as its system CD-HFD fed C57BL/6 mice. The assay can be described thus: CD-HFD mouse model of NASH and NASH-triggered HCC. The note with it: for development of NASH: MRI analysis and histological analysis; for Histopathological signs of NASH (e.g. ballooned hepatocytes): H/E stains of liver; for Aberrant hepatic lipid metabolism and b-Oxidation: Real time PCR analysis for gene expression in the liver. It counts as in vivo. The text has this: Indeed that approach enabled the inventors to study a chronic model of NASH in the context of metabolic syndrome, triggering subsequent HCC in C57BL/6 mice, in the absence of chemical carcinogens or genetic mutations predisposing to NASH or HCC development. CD-HFD fed mice display several long term pathologies observed in human patients: abdominal obesity, overweight, insulin resistance, liver damage, production of reactive oxygen species (ROS) fibrosis, hepatic mitochondrial damage, dyslipidemia and NASH. Moreover, HCC developed 12 months post CD-HFD start and resembled histologically, genetically and morphologically human HCC (FIG. 1). Cholesterol Diet—High Fat Diet (CD-HFD) in mice recapitulates human NASH and NASH triggered HCC pathology. (FIG. 1A) Weight development in male normal diet fed (ND) and CD-HFD fed C57BL/6 mice. (FIG. 1B) Intraperitoneal Glucose tolerance test performed with 6-month-old male ND and CD-HFD C57BL/6 mice. (FIG. 1C) Quantification of serum aminotransferase (ALT) levels in male C57BL/6 mice reflecting liver damage. (FIG. 1D) MRI analyses on livers of 6-month-old ND and CD-HFD C57BL/6 mice. T1 (fast low-angle shot [FLASH]) OUT phase: dark color indicative of steatosis. T2 TurboRare visualizes increase in subcutaneous and abdominal fat and hepatic lipid accumulation (bright regions) in CD-HFD mice. (FIG. 1E) Macroscopy and histopathology of livers from 12-month-old ND, HFD, or CD-HFD C57BL/6 mice, with arrowhead pointing towards HCC. Scale bar: 5 mm. T: Tumor. NT: Non-Tumor. ***P=0.001. (F) Representative H&E staining of 12-month-old CD-HFD C57BL/6 livers and human livers illustrating NASH. Accumulation of Mallory Denk bodies (red arrowhead), ballooned hepatocytes (brown arrowhead), and satellitosis (blue arrowhead) is similar to human NASH pathology (right image). Scale bar: 50 μm.
(§1) Aspirin/Clopidrogrel (Asp/Clop), a thrombocyte aggregation inhibitor, treatment reduces the capacity of platelets aggregate and prevents NASH and aberrant hepatic lipid metabolism (FIG. 5). (FIG. 5A) Asprin/Clopidrogrel treatment reduces the number of platelets in the liver (White bars: ND; Black bars: CD-HFD; Green bars: CD-HFD treated with Asp/Clop). […] (FIG. 5E) Liver to body weight ratio is rescued upon Asp/Clop treatment at 12 months of age. (FIG. 5F) Liver damage as measured by ALT levels in serum is prevented in Asp/Clop treated mice. (FIG. 5G) Triglycerides are reduced in serum of Asp/Clop treated mice at 12 months of age. (FIG. 5H) Serum cholesterol is reduced in Asp/Clop treated mice at 6 and 12 months, (FIG. 5I) Aberrant hepatic lipid metabolism and b-Oxidation is rescued in Asp/Clop treated mice—as analyzed by Real time PCR analysis for gene expression in the liver. Stars indicate significance. […] (FIG. 5J) Lipid deposition in the liver indicated by a dark staining in the T1 (FLASH) OUT phase is not detected—as in the CD-HFD. Still at the same time abdominal and subcutaneous fat are visible in Asp/Clop treated mice. (FIG. 5K) Histopathological signs of NASH (e.g. ballooned hepatocytes—see also stars) are absent in Asp/Clop treated mice.

A further assay relates to platelets. The assay can be described thus: ex vivo activation / aggregation assay on platelets taken from peripheral blood. The format is cell-based. To be noted: platelets taken from peripheral blood of treated CD-HFD mice.
Text: By using different dilution curves of CRP or Thr a reproducible and consistent analysis of the platelet-response rate was visible.
as §1

The values below come from patent US11806361B2, “Treatments of non-alcoholic steatohepatitis (NASH)” (DEUTSCHES KREBSFORSCHUNGSZENTRUM STIFTUNG DES ÖFFENTLICHEN …, priority 2016, dated 2023).

`CC1=C(CC(=O)O)c2cc(F)ccc2/C1=C\c1ccc([S+](C)[O-])cc1` (centres unmarked) [sulindac, Sulindac]: in the assay on CD-HFD fed C57BL/6 mice (CD-HFD fed mice), the “Liver damage as measured by ALT levels in serum” value was “not prevented”, the development of obesity entry is reported as “do develop obesity”, the “insulin resistance (intraperitoneal glucose tolerance test)” value is recorded as “insulin resistant as CD-HFD fed mice” and the “development of NASH” value is given as “does not prevent the development of NASH”. Besides, in the assay with CD-HFD fed C57BL/6 mice, the “Histopathological signs of NASH (e.g. ballooned hepatocytes)” value is “present”; the “Aberrant hepatic lipid metabolism and b-Oxidation” value is recorded as “not rescued”. In addition, in the assay on CD-HFD fed C57BL/6 mice (MRI), the “Lipid deposition in the liver (dark staining in the T1 (FLASH) OUT phase)” value is recorded as “detected”; the “abdominal and subcutaneous fat” value is on record as “visible”. The Triglycerides in serum result in the assay with CD-HFD fed C57BL/6 mice (at 6 or 12 months of age) is on record as “not significantly reduced”. The “Liver to body weight ratio” value in the assay on CD-HFD fed C57BL/6 mice (at 12 months of age) was “not rescued”.
`CCCSc1nc(N[C@@H]2C[C@H]2c2ccc(F)c(F)c2)c2nnn([C@@H]3C[C@H](OCCO)[C@@H](O)[C@H]3O)c2n1` [ticagrelor, Ticagrelor]: in the assay on platelets, the “Activation status of platelets (ex vivo assay)” value is “significantly reduced” and the “Aggregation capacity status of platelets (ex vivo aggregation assay)” value is given as “significantly reduced”. For the same compound, in the assay with CD-HFD fed C57BL/6 mice (CD-HFD fed mice), the “Liver damage as measured by ALT levels in serum” value is “significantly reduced”; the development of obesity result was “do develop obesity”; the “number of HCC (HCC incidence)” value is “No HCC”; the “development of NASH” value was “blocks NASH and HCC development”. In addition, in the assay on CD-HFD fed C57BL/6 mice, the “Histopathological signs of NASH (e.g. ballooned hepatocytes)” value is “not present”; the “Aberrant hepatic lipid metabolism and b-Oxidation” value was “rescued”. Also, the Serum cholesterol result in the assay on CD-HFD fed C57BL/6 mice (at 6 and 12 months) is listed as “significantly reduced”. Besides, the Triglycerides in serum result with CD-HFD fed C57BL/6 mice (at 12 months of age) is “reduced by trend”.
